Values quoted from earlier work in PubChem BioAssay AID1259410 (Chemical Carcinogenesis Research Information System (CCRIS), 2018).

System: rodent tumor promotion studies, tumor incidence
Experiment: CCRIS tumor promotion studies
Settings: Route [Carcinogen]: DERMAL, Route [Promoter]: DERMAL, Species: MOUSE

Compound: CCCCCCCCCCCCCC(=O)O[C@@H]1[C@@H](C)[C@@]2(O)[C@@H](C=C(CO)C[C@]3(O)C(=O)C(C)=C[C@@H]23)[C@@H]2C(C)(C)[C@]12OC(C)=O
- outcome (Carcinogen: 15,16-DIHYDRO-11-METHYLCYCLOPENTA[A]PHENANTHREN-17-ONE, 892-17-1, Doses [Carcinogen]: 1632 NMOL IN 100 µL TOLUENE ONCE, Doses [Promoter]: 0, 2 UG IN 50 µL ACETONE 2/WK FOR 19 WK BEGINNING 1 WK POST CARCINOGEN TREATMENT (STUDY DURATION: 20 WK), Strain/Sex: SKH/HR-1/MALE): skin: papilloma
- outcome (Carcinogen: (+/-)-R,11-T-12-DIHYDROXY-T-13,14-EPOXY-11,12,13,14-TETRAHYDRODIBENZO[A,L]PYRENE, 159812-26-7, Doses [Carcinogen]: 1.33, 4, 12 NMOL IN 100 ML ACETONE ONCE, Doses [Carcinogen]: 1.33, 4, 12 NMOL IN 100 ML ACETONE ONCE, Doses [Promoter]: 1.62 NMOL IN 100 ML ACETONE 2/WK FOR 28 WK BEGINNING 1 WK POST CARCINOGEN DOSE (STUDY DURATION: 30 WK), Strain/Sex: SENCAR/FEMALE): skin: tumor
- outcome (Carcinogen: (+/-)-R-11,T-12-DIHYDROXY-C-13,14-EPOXY-11,12,13,14-TETRAHYDRODIBENZO[A,L]PYRENE, 159812-27-8, Doses [Carcinogen]: 1.33, 4, 12 NMOL IN 100 ML ACETONE ONCE, Doses [Carcinogen]: 1.33, 4, 12 NMOL IN 100 ML ACETONE ONCE, Doses [Promoter]: 1.62 NMOL IN 100 ML ACETONE 2/WK FOR 28 WK BEGINNING 1 WK POST CARCINOGEN DOSE (STUDY DURATION: 30 WK), Strain/Sex: SENCAR/FEMALE): skin: tumor
- outcome (Carcinogen: (+/-)-TRANS-1,2-DIHYDRO-1,2-DIHYDROXY-5-METHYLCHRYSENE, 96741-20-7, Doses [Carcinogen]: 33, 100 NMOL IN 0.1 ML ACETONE ONCE, Doses [Promoter]: 2.5 UG IN 0.1 ML ACETONE 3/WK FOR 25 WK BEGINNING 10 D POST INITIATION (STUDY DURATION: 27 WK), Strain/Sex: CD-1/FEMALE): skin: tumors
- outcome (Carcinogen: (+/-)-TRANS-1,2-DIHYDROXY-ANTI-3,4-EPOXY-1,2,3,4-TETRAHYDRO-5-METHYLCHRYSENE, 96790-39-5, Doses [Carcinogen]: 33, 100 NMOL IN 0.1 ML ACETONE ONCE, Doses [Promoter]: 2.5 UG IN 0.1 ML ACETONE 3/WK FOR 25 WK BEGINNING 10 D POST INITIATION (STUDY DURATION: 27 WK), Strain/Sex: CD-1/FEMALE): skin: tumors
- outcome (Carcinogen: (+/-)-TRANS-7,8-DIHYDRO-7,8-DIHYDROXY-5-METHYLCHRYSENE, 96741-21-8, Doses [Carcinogen]: 33, 100 NMOL IN 0.1 ML ACETONE ONCE, Doses [Promoter]: 2.5 UG IN 0.1 ML ACETONE 3/WK FOR 25 WK BEGINNING 10 D POST INITIATION (STUDY DURATION: 27 WK), Strain/Sex: CD-1/FEMALE): skin: tumors
- outcome (Carcinogen: ANTI-1,2-DIHYDROXY-3,4-EPOXY-1,2,3,4-TETRAHYDRO-5,6-DIMETHYLCHRYSENE, 139347-89-0, Doses [Carcinogen]: 33, 100, 400 NMOL IN 0.1 ML ACETONE ONCE, Doses [Carcinogen]: 33, 100, 400 NMOL IN 0.1 ML ACETONE ONCE, Doses [Promoter]: 0, 2.5 UG IN 0.1 ML ACETONE 3/WK FOR 20 WK BEGINNING 10 D POST CARCINOGEN DOSE (STUDY DURATION: 20 WK), Strain/Sex: CD-1/FEMALE): skin: tumor
- outcome (Carcinogen: ANTI-4,3-DIHYDROXY-2,1-EPOXY-4,3,2,1-TETRAHYDROBENZO[C]PHENANTHRENE, 75443-72-0, Doses [Carcinogen]: 100, 400 NMOL IN 0.1 ML ACETONE ONCE, Doses [Promoter]: 0, 2.5 UG IN 0.1 ML ACETONE 3/WK FOR 20 WK BEGINNING 10 D POST CARCINOGEN DOSE (STUDY DURATION: 20 WK), Strain/Sex: CD-1/FEMALE): skin: tumor
- outcome (Carcinogen: BENZO[A]PYRENE, 50-32-8, Doses [Carcinogen]: 0, 2.52, 12.6, 50.5, 101 UG IN ACETONE ONCE, Doses [Carcinogen]: 0, 2.52, 12.6, 50.5, 101 UG IN ACETONE ONCE, Doses [Promoter]: 0, 2 UG IN ACETONE 2/WK FOR 52 WK (STUDY DURATION: 1 YR), Strain/Sex: SENCAR/FEMALE): skin: papilloma, carcinoma
- outcome (Carcinogen: BENZO[A]PYRENE, 50-32-8, Doses [Carcinogen]: 0, 2.52, 12.6, 50.5, 101 UG IN ACETONE ONCE, Doses [Carcinogen]: 0, 2.52, 12.6, 50.5, 101 UG IN ACETONE ONCE, Doses [Promoter]: 0, 2 UG IN ACETONE 2/WK FOR 52 WK (STUDY DURATION: 1 YR), Strain/Sex: SENCAR/MALE): skin: papilloma, carcinoma
- outcome (Carcinogen: BENZO[A]PYRENE, 50-32-8, Doses [Carcinogen]: 20, 100 NMOL IN 100 µL ACETONE ONCE, Doses [Promoter]: 3.24 NMOL/100 µL ACETONE 2/WK BEGINNING 2 WK POST CARCINOGEN DOSE AND CONTINUING FOR 24 WK (STUDY DURATION: 27 WK), Strain/Sex: SENCAR/FEMALE): skin: tumor
- outcome (Carcinogen: BENZO[A]PYRENE, 50-32-8, Doses [Carcinogen]: 33.3, 100, 300 NMOL IN 100 µL ACETONE ONCE, Doses [Carcinogen]: 33.3, 100, 300 NMOL IN 100 µL ACETONE ONCE, Doses [Promoter]: 3.24 NMOL/100 µL ACETONE ONCE 1 WK POST CARCINOGEN DOSE THEN 2/WK BEGINNING 3 WK LATER AND CONTINUING FOR 11 WK (STUDY D, Strain/Sex: SENCAR/FEMALE): skin: tumor
